Source: article PMC12018053 (Biochemistry and Biophysics Reports, 2025)
In brackets after ≈: the same amount, converted by molar mass.

How the values were obtained:
[1] = biological target: T1, Human sEH (Homo sapiens, UniProt P34913); assay: sEH fluorescent-based inhibition assay; format: biochemical
T1 sequence (P34913 1-555): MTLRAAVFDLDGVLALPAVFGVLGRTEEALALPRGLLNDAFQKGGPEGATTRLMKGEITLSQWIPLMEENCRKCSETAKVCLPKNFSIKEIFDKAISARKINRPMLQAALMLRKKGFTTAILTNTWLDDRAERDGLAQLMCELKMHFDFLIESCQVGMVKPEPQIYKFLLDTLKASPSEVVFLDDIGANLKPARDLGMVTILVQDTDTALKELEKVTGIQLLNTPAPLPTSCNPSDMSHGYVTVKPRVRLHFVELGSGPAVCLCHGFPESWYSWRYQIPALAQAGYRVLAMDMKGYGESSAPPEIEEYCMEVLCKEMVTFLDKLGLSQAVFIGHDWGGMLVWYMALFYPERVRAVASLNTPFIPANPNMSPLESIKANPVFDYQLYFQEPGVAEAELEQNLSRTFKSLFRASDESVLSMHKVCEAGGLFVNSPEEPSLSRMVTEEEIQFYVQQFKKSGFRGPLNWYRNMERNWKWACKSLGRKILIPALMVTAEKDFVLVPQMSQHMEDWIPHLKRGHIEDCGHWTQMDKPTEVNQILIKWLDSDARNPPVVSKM

[2] = biological target: T2, Mouse sEH (Mus musculus, UniProt P34914); assay: sEH fluorescent-based inhibition assay; format: biochemical
T2 sequence (P34914 1-554): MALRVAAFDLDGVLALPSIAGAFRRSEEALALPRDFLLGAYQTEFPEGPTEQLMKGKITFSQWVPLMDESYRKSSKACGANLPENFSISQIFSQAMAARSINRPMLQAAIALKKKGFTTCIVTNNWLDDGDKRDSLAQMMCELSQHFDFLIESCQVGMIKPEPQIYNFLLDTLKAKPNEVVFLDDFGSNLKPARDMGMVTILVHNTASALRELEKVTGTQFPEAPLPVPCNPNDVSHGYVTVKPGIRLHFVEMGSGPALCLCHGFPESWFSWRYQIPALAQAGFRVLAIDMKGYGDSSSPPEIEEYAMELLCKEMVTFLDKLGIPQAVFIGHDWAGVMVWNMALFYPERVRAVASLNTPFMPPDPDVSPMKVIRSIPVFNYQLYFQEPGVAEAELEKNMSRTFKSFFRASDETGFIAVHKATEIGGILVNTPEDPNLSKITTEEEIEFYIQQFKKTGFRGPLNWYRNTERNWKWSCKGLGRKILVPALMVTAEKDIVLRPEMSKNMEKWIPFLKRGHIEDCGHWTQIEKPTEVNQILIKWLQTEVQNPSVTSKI

[3] = biological target: T3, Rat sEH (Rattus norvegicus, UniProt P80299); assay: sEH fluorescent-based inhibition assay; format: biochemical
T3 sequence (P80299 1-554): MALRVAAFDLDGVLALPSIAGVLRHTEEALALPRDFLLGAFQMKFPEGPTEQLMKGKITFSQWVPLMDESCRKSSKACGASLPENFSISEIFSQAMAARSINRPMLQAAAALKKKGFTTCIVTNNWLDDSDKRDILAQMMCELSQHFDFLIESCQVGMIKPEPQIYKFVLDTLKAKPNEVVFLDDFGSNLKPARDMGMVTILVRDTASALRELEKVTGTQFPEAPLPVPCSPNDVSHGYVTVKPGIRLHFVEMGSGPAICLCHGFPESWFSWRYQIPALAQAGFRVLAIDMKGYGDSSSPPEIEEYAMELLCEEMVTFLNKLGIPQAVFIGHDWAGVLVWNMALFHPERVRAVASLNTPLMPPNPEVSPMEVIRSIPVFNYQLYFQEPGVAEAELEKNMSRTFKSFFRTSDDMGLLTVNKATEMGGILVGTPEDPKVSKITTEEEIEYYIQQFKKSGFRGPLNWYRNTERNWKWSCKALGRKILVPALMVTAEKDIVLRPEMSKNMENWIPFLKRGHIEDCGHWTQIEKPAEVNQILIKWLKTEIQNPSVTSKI

[4] = physchem; details: sodium phosphate buffer, 24 °C, pH 7.4, aqueous buffer, kinetic from dmso stock
[5] = system: temporomandibular joint (TMJ); details: local administration; cited from earlier work
[6] = system: rats; details: 1 mg/kg; cited from earlier work

Row | IC50 [1] [nM] | IC50 [2] [nM] | IC50 [3] [nM] | solubility [4] [µM] | SMILES | Effect on formalin-induced hyperalgesia within the temporomandibular joint [5] | Effect on NTG-induced trigeminal hyperalgesia [6]
1 | 3.7 | 283 | 3.7 | 56 (≈ 28.3 µg/mL) | O=C(Nc1ccc(-c2nccc3ccccc23)cc1)C1CCN(S(=O)(=O)c2ccccc2Cl)CC1 [Compound 4a, 1-((2-chlorophenyl)sulfonyl)-N-(4-(isoquinolin-1-yl)phenyl)piperidine-4-carboxamide] | – | –
2 | 18.7 | 236 | 11.5 | 51.6 (≈ 26.1 µg/mL) | O=C(Nc1ccc(-c2cc3ccccc3cn2)cc1)C1CCN(S(=O)(=O)c2ccccc2Cl)CC1 [Compound 4b, 1-((2-chlorophenyl)sulfonyl)-N-(4-(isoquinolin-3-yl)phenyl)piperidine-4-carboxamide] | – | –
3 | 0.4 | 22.3 | 0.8 | 49.2 (≈ 24.9 µg/mL) | O=C(Nc1ccc(-c2cncc3ccccc23)cc1)C1CCN(S(=O)(=O)c2ccccc2Cl)CC1 [Compound 4c, 1-((2-chlorophenyl)sulfonyl)-N-(4-(isoquinolin-4-yl)phenyl)piperidine-4-carboxamide] | – | –
4 | 0.4 | 30.6 | 2.2 | 40 (≈ 20.3 µg/mL) | O=C(Nc1ccc(-c2cccc3cnccc23)cc1)C1CCN(S(=O)(=O)c2ccccc2Cl)CC1 [Compound 4d, 1-((2-chlorophenyl)sulfonyl)-N-(4-(isoquinolin-5-yl)phenyl)piperidine-4-carboxamide] | – | –
5 | 1.8 | 51.3 | 0.5 | 55.8 (≈ 28.2 µg/mL) | O=C(Nc1ccc(-c2ccc3cnccc3c2)cc1)C1CCN(S(=O)(=O)c2ccccc2Cl)CC1 [Compound 4e, 1-((2-chlorophenyl)sulfonyl)-N-(4-(isoquinolin-6-yl)phenyl)piperidine-4-carboxamide] | – | –
6 | 1.4 | 69 | 4.7 | 65.6 (≈ 33.2 µg/mL) | O=C(Nc1ccc(-c2cccc3ccncc23)cc1)C1CCN(S(=O)(=O)c2ccccc2Cl)CC1 [Compound 4g, 1-((2-chlorophenyl)sulfonyl)-N-(4-(isoquinolin-8-yl)phenyl)piperidine-4-carboxamide] | – | –
7 | – | 188 | 1.9 | 66.7 (≈ 30.4 µg/mL) | O=C(Nc1ccc(-c2ccccn2)cc1)C1CCN(S(=O)(=O)c2ccccc2Cl)CC1 [Compound 4h, 1-((2-chlorophenyl)sulfonyl)-N-(4-(pyridin-2-yl)phenyl)piperidine-4-carboxamide] | – | –
8 | 1.3 | 127 | 2.8 | 51.1 (≈ 23.3 µg/mL) | O=C(Nc1ccc(-c2cccnc2)cc1)C1CCN(S(=O)(=O)c2ccccc2Cl)CC1 [Compound 4i, 1-((2-chlorophenyl)sulfonyl)-N-(4-(pyridin-3-yl)phenyl)piperidine-4-carboxamide] | – | –
9 | 1.8 | 133 | 3.1 | 50.9 (≈ 23.2 µg/mL) | O=C(Nc1ccc(-c2ccncc2)cc1)C1CCN(S(=O)(=O)c2ccccc2Cl)CC1 [Compound 4j, 1-((2-chlorophenyl)sulfonyl)-N-(4-(pyridin-4-yl)phenyl)piperidine-4-carboxamide] | – | –
10 | 4.7 | 226 | 1.6 | 43.4 (≈ 20.4 µg/mL) | Cc1cccc(-c2ccc(NC(=O)C3CCN(S(=O)(=O)c4ccccc4Cl)CC3)cc2)n1 [Compound 4k, 1-((2-chlorophenyl)sulfonyl)-N-(4-(6-methylpyridin-2-yl)phenyl)piperidine-4-carboxamide] | – | –
11 | 5.1 | 499 | 10.3 | 36.4 (≈ 17.1 µg/mL) | Cc1ccnc(-c2ccc(NC(=O)C3CCN(S(=O)(=O)c4ccccc4Cl)CC3)cc2)c1 [Compound 4l, 1-((2-chlorophenyl)sulfonyl)-N-(4-(4-methylpyridin-2-yl)phenyl)piperidine-4-carboxamide] | – | –
12 | 2.6 | 175 | 1.1 | 49.4 (≈ 23.2 µg/mL) | Cc1cncc(-c2ccc(NC(=O)C3CCN(S(=O)(=O)c4ccccc4Cl)CC3)cc2)c1 [Compound 4m, 1-((2-chlorophenyl)sulfonyl)-N-(4-(5-methylpyridin-3-yl)phenyl)piperidine-4-carboxamide] | – | –
13 | 5.8 | 259 | 3.6 | 53 (≈ 24.9 µg/mL) | Cc1cc(-c2ccc(NC(=O)C3CCN(S(=O)(=O)c4ccccc4Cl)CC3)cc2)ccn1 [Compound 4n, 1-((2-chlorophenyl)sulfonyl)-N-(4-(2-methylpyridin-4-yl)phenyl)piperidine-4-carboxamide] | – | –
14 | – | – | – | – | CCC(=O)N1CCC(NC(=O)Nc2ccc(OC(F)(F)F)cc2)CC1 [TPPU] | prevented formalin-induced hyperalgesia | –
15 | – | – | – | – | NC(=O)c1cccc(-c2cc(OC(=O)NC3CCCCC3)ccc2O)c1 [URB937] | – | reversed NTG-induced trigeminal hyperalgesia
